The source of these data is patent US20240368104A1, “Novel Dialkoxynaphtho[2,3-C]Furan-1(3H)-One Derivatives and Pharmaceutical Composition For Preventing or Treating Respiratory Disease or SARS-COV-2 Infection Disease, Comprising Same” (priority 2021, published 2024).

Data set [1] concerns SARS-COV-2. Briefly: microbe, parasite or virus in culture. The data set is classed as cell-based. Further details: SI (Selectivity Index, CC50/IC50): unit not given here. As to conditions: for SI (Selectivity Index, CC50/IC50): SARS-COV-2, values >50 assumed to be 50; for IC50: read-out: SARS-COV-2 inhibition (IC50).
Data set [2] can be described thus: in vitro. As to conditions: African green monkey.
Setting [3] is: Severe acute respiratory syndrome coronavirus 2, Vero cells, 24 hours infection.
Setting [4] is: Severe acute respiratory syndrome coronavirus 2, Vero, 24 h.

Where two headings read alike, the source gives them in different places.

A word on the IC50: it is the concentration at which inhibition is half-maximal.

On to `COc1cc2cc3c(c(-c4ccc(N5CCC(C)CC5)nc4)c2cc1OC)C(=O)OC3` [Example 159, 6,7-dimethoxy-9-(6-(4-methylpiperidin-1-yl)pyridin-3-yl)naphtho[2,3-c]furan-1(3H)-one], for which the “SI (Selectivity Index, CC50/IC50)” value in data set [1] worked out at 32.86. Also, in data set [1] (setting [3]), the IC50 turned out to be 1.52 µM. Besides, the CC50 in data set [2] is > 50 µM.

For `COc1cc2cc3c(c(-c4ccc(N(C)C5CCCC5)nc4)c2cc1OC)C(=O)OC3` [Example 177, 9-(6-(cyclopentyl(methyl)amino)pyridin-3-yl)-6,7-dimethoxynaphtho[2,3-c]furan-1(3H)-one], the “SI (Selectivity Index, CC50/IC50)” value in data set [1] was 180.12. Further, the IC50 in data set [1] (setting [3]) came out at 0.28 µM. Besides, the CC50 in data set [2] is > 50 µM.

Regarding `COc1cc2cc3c(c(-c4cc5c(cc4OC(C)=O)OCO5)c2cc1OC)C(=O)OC3` [Example 274, 6-(6,7-dimethoxy-3-oxo-1,3-dihydronaphtho[2,3-c]furan-4-yl)benzo[d][1,3]dioxol-5-yl acetate], the “SI (Selectivity Index, CC50/IC50)” value in data set [1] came out at 19.61. The IC50 in data set [1] (setting [3]) is 2.55 µM. In data set [2], the CC50 is > 50 µM.

With `COc1cc2cc3c(c(-c4ccc(C(F)(F)F)c5cccnc45)c2cc1OC)C(=O)OC3` [Example 119, 6,7-dimethoxy-9-(5-(trifluoromethyl)quinolin-8-yl)naphtho[2,3-c]furan-1(3H)-one], the “SI (Selectivity Index, CC50/IC50)” value in data set [1] came to 11.45. Moreover, the IC50 in data set [1] (setting [3]) was 4.36 µM. Moreover, the CC50 in data set [2] was > 50 µM.

Regarding `COc1cc2cc3c(c(N4CCNCC4)c2cc1OC)C(=O)OC3` [Example 128, 6,7-dimethoxy-9-(piperazin-1-yl)naphtho[2,3-c]furan-1(3H)-one], the “SI (Selectivity Index, CC50/IC50)” value in data set [1] is listed as 1.78. For the same compound, the IC50 in data set [1] (setting [4]) turned out to be 28 µM. Further, the CC50 in data set [2] is > 50 µM.

Take `COc1cc2cc3c(c(-c4ccnc(F)c4)c2cc1OC)C(=O)OC3` [Example 186, 9-(2-fluoropyridin-4-yl)-6,7-dimethoxynaphtho[2,3-c]furan-1(3H)-one]: in data set [1], the “SI (Selectivity Index, CC50/IC50)” value was 1.0. Moreover, in data set [1] (setting [3]), the IC50 is > 50 µM. In addition, the CC50 in data set [2] was > 50 µM.

On to `COc1cc2cc3c(c(-c4ccc(N(C)[C@H]5CCc6c(cccc6OC)C5)nc4)c2cc1OC)C(=O)OC3` [Example 164, (S)-6,7-dimethoxy-9-(6-((5-methoxy-1,2,3,4-tetrahydronaphthalen-2-yl)(methyl)amino)pyridin-3-yl)naphtho[2,3-c]furan-1(3H)-one], for which the “SI (Selectivity Index, CC50/IC50)” value in data set [1] worked out at 39.02. In data set [1] (setting [3]), the IC50 was 1.28 µM. Moreover, the CC50 in data set [2] was > 50 µM.

Regarding `COc1cc2cc3c(c(-c4ccc5nc(C)ccc5c4)c2cc1OC)C(=O)OC3` [Example 116, 6,7-dimethoxy-9-(2-methylquinolin-6-yl)naphtho[2,3-c]furan-1(3H)-one], in data set [1], the “SI (Selectivity Index, CC50/IC50)” value was determined as 43.72. Besides, the IC50 in data set [1] (setting [3]) came out at 1.14 µM. The CC50 in data set [2] is > 50 µM.

Regarding `COc1cc2cc3c(c(-c4cnc(N[C@@H](C)c5ccc(F)cc5)nc4)c2cc1OC)C(=O)OC3` [Example 55, (S)-9-(2-((1-(4-fluorophenyl)ethyl)amino)pyrimidin-5-yl)-6,7-dimethoxynaphtho[2,3-c]furan-1(3H)-one], the “SI (Selectivity Index, CC50/IC50)” value in data set [1] is 4.23. Further, the IC50 in data set [1] (setting [3]) amounted to 11.8 µM. Moreover, in data set [2], the CC50 is > 50 µM.

For the compound `COc1cc2cc3c(c(-c4cnc(N(C)C5CCOCC5)nc4)c2cc1OC)C(=O)OC3` [Example 115, 6,7-dimethoxy-9-(2-(methyl(tetrahydro-2H-pyran-4-yl)amino)pyrimidin-5-yl)naphtho[2,3-c]furan-1(3H)-one], in data set [1], the “SI (Selectivity Index, CC50/IC50)” value was found to be 48.62. Also, in data set [1] (setting [3]), the IC50 turned out to be 1.03 µM. In data set [2], the CC50 was > 50 µM.

For the compound `COc1cc2cc3c(c(-c4cnc(N(C)c5ccc(C)c(C)c5)nc4)c2cc1OC)C(=O)OC3` [Example 109, 9-(2-((3,4-dimethylphenyl)(methyl)amino)pyrimidin-5-yl)-6,7-dimethoxynaphtho[2,3-c]furan-1(3H)-one], the “SI (Selectivity Index, CC50/IC50)” value in data set [1] turned out to be 18.73. In addition, the IC50 in data set [1] (setting [3]) stood at 2.67 µM. Further, the CC50 in data set [2] was > 50 µM.

As to `COc1cc2cc3c(c(-c4ccc5c(c4)CN(C)CC5)c2cc1OC)C(=O)OC3` [Example 190, 6,7-dimethoxy-9-(2-methyl-1,2,3,4-tetrahydroisoquinolin-7-yl)naphtho[2,3-c]furan-1(3H)-one], the “SI (Selectivity Index, CC50/IC50)” value in data set [1] is 1.73. Further, the IC50 in data set [1] (setting [3]) is 29 µM. The CC50 in data set [2] is > 50 µM.

In the case of `COc1cc2cc3c(c(-c4ccc(N5CCOCC5)nn4)c2cc1OC)C(=O)OC3` [Example 219, 6,7-dimethoxy-9-(6-morpholinopyridazin-3-yl)naphtho[2,3-c]furan-1(3H)-one], the “SI (Selectivity Index, CC50/IC50)” value in data set [1] is listed as 1.00. The IC50 in data set [1] (setting [3]) is > 50 µM. For the same compound, in data set [2], the CC50 is > 50 µM.

On to `COc1cc2cc(CO)c(C(=O)Cl)c(-c3cc4c(cc3O)OCO4)c2cc1OC` [Example 224, 1-(6-hydroxybenzo[d][1,3]dioxol-5-yl)-3-(hydroxymethyl)-6,7-dimethoxy-2-naphthoyl chloride], for which the “SI (Selectivity Index, CC50/IC50)” value in data set [1] worked out at 2.63. The IC50 in data set [1] (setting [3]) is 1.9 µM. Moreover, the CC50 in data set [2] is > 50 µM.

On to `COc1cc2cc3c(c(-c4ccc(N5CCSCC5)nc4)c2cc1OC)C(=O)OC3` [Example 10, 6,7-dimethoxy-9-(6-thiomorpholinopyridin-3-yl)naphtho[2,3-c]furan-1(3H)-one], for which the “SI (Selectivity Index, CC50/IC50)” value in data set [1] is listed as 91.58. Besides, the IC50 in data set [1] (setting [3]) came out at 0.55 µM. For the same compound, the CC50 in data set [2] is > 50 µM.

`COc1cc2cc3c(c(-c4ccc(N(C)c5ccc(S)cc5)nc4)c2cc1OC)C(=O)OC3.Cl` [Example 239, 9-(6-((4-mercaptophenyl)(methyl)amino)pyridin-3-yl)-6,7-dimethoxynaphtho[2,3-c]furan-1(3H)-one]: in data set [1], the “SI (Selectivity Index, CC50/IC50)” value was 1.00. Besides, the IC50 in data set [1] (setting [4]) was > 50 µM. Also, the CC50 in data set [2] was > 50 µM.

Take `COCCN(C)c1ccc(-c2c3c(cc4cc(OC)c(OC)cc24)COC3=O)cc1` [Example 256, 6,7-dimethoxy-9-(4-((2-methoxyethyl)(methyl)amino)phenyl)naphtho[2,3-c]furan-1(3H)-one]: in data set [1], the “SI (Selectivity Index, CC50/IC50)” value came out at 82.38. Also, in data set [1] (setting [3]), the IC50 was 0.61 µM. Further, in data set [2], the CC50 is > 50 µM.

On to `CCNc1cccc(-c2c3c(cc4cc(OC)c(OC)cc24)COC3=O)c1` [Example 258, 9-(3-(ethylamino)phenyl)-6,7-dimethoxynaphtho[2,3-c]furan-1(3H)-one], for which the “SI (Selectivity Index, CC50/IC50)” value in data set [1] is given as 3.04. Moreover, the IC50 in data set [1] (setting [3]) turned out to be 16.5 µM. Besides, in data set [2], the CC50 was > 50 µM.

As to `COc1cc2cc3c(c(-c4ccc(N5C(=O)OC[C@@H]5Cc5ccccc5)nc4)c2cc1OC)C(=O)OC3` [Example 211, (S)-4-benzyl-3-(5-(6,7-dimethoxy-3-oxo-1,3-dihydronaphtho[2,3-c]furan-4-yl)pyridin-2-yl) oxazolidin-2-one], in data set [1], the “SI (Selectivity Index, CC50/IC50)” value was 12.50. The IC50 in data set [1] (setting [3]) worked out at 4 µM. For the same compound, the CC50 in data set [2] was > 50 µM.

As to `CCCCN(C)c1ncc(-c2c3c(cc4cc(OC)c(OC)cc24)COC3=O)cn1` [Example 71, 9-(2-(butyl(methyl)amino)pyrimidin-5-yl)-6,7-dimethoxynaphtho[2,3-c]furan-1(3H)-one], the “SI (Selectivity Index, CC50/IC50)” value in data set [1] is recorded as 234.36. The IC50 in data set [1] (setting [4]) was determined as 0.21 µM. The CC50 in data set [2] is > 50 µM.

On to `CCN(CC)c1ncc(-c2c3c(cc4cc(OC)c(OC)cc24)COC3=O)cn1` [Example 74, 9-(2-(diethylamino)pyrimidin-5-yl)-6,7-dimethoxynaphtho[2,3-c]furan-1(3H)-one], for which the “SI (Selectivity Index, CC50/IC50)” value in data set [1] stood at 98.94. In data set [1] (setting [3]), the IC50 was determined as 0.51 µM. In data set [2], the CC50 is > 50 µM.

As for `COc1cc2cc3c(c(-c4ccc5nc(C)cc(O)c5c4)c2cc1OC)C(=O)OC3` [Example 147, 9-(4-hydroxy-2-methylquinolin-6-yl)-6,7-dimethoxynaphtho[2,3-c]furan-1(3H)-one], in data set [1], the “SI (Selectivity Index, CC50/IC50)” value was 1.0. Moreover, in data set [1] (setting [3]), the IC50 was > 50 µM. The CC50 in data set [2] was > 50 µM.

As for `CNc1ncc(-c2c3c(cc4cc(OC)c(OC)cc24)COC3=O)cn1` [Example 108, 6,7-dimethoxy-9-(2-(methylamino)pyrimidin-5-yl)naphtho[2,3-c]furan-1(3H)-one], the “SI (Selectivity Index, CC50/IC50)” value in data set [1] is 18.03. The IC50 in data set [1] (setting [3]) was 2.77 µM. In addition, in data set [2], the CC50 was > 50 µM.

As for `COc1cc2cc3c(c(-c4ccc(N5CCCC5)cc4)c2cc1OC)C(=O)OC3` [Example 251, 6,7-dimethoxy-9-(4-(pyrrolidin-1-yl)phenyl)naphtho[2,3-c]furan-1(3H)-one], the “SI (Selectivity Index, CC50/IC50)” value in data set [1] is listed as 119.39. Besides, the IC50 in data set [1] (setting [3]) turned out to be 0.42 µM. In data set [2], the CC50 is > 50 µM.

Consider `COc1cc2cc3c(c(N4CCN(CCO)CC4)c2cc1OC)C(=O)OC3` [Example 144, 9-(4-(2-hydroxyethyl)piperazin-1-yl)-6,7-dimethoxynaphtho[2,3-c]furan-1(3H)-one], for which the “SI (Selectivity Index, CC50/IC50)” value in data set [1] came to 1.0. The IC50 in data set [1] (setting [3]) is > 50 µM. Moreover, in data set [2], the CC50 is > 50 µM.

For the compound `COc1cc2c(OC)c3c(c(-c4ccc(N(C)[C@H]5CCc6c(cccc6OC)C5)nc4)c2cc1OC)COC3=O` [Example 266, (S)-6,7,9-trimethoxy-4-(6-((5-methoxy-1,2,3,4-tetrahydronaphthalen-2-yl)(methyl)amino)pyridin-3-yl)naphtho[2,3-c]furan-1(3H)-one], in data set [1], the “SI (Selectivity Index, CC50/IC50)” value was found to be 1.00. In data set [1] (setting [3]), the IC50 is > 50 µM. Besides, the CC50 in data set [2] was > 50 µM.

For `COc1cc2cc3c(c(-c4ccc(N(C)CC5CC5)nc4)c2cc1OC)C(=O)OC3.Cl` [Example 183, 9-(6-((cyclopropylmethyl)(methyl)amino)pyridin-3-yl)-6,7-dimethoxynaphtho[2,3-c]furan-1(3H)-one], the “SI (Selectivity Index, CC50/IC50)” value in data set [1] worked out at 124.83. For the same compound, in data set [1] (setting [4]), the IC50 stood at 0.4 µM. For the same compound, the CC50 in data set [2] is > 50 µM.
